# Test results published in patent US20090088457A1, “Primary Amines as Renin Inhibitors” (Actelion Pharmaceuticals, Ltd., priority 2006, published 2009).
# Biological target: T1, recombinant human renin (Homo sapiens, UniProt P00797)
# T1 sequence (P00797 67-406): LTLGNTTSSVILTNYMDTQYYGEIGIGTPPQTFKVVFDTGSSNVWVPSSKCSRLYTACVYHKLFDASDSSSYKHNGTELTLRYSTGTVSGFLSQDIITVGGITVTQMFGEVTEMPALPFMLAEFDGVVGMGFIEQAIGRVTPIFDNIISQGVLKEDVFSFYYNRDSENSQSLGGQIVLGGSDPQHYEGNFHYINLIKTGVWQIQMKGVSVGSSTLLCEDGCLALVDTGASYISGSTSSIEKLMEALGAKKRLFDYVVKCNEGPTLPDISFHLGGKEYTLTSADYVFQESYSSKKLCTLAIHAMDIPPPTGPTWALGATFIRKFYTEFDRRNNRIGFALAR
# Experiment: Primary renin inhibition assay: IC50 in buffer, 384 well MTP (AngI quantified by EIA)
# Type: biochemical
# Conditions: human tetradecapeptide substrate, 37° C. for 3 h
# Protocol: 1. Enzyme Immuno Assay (EIA) to Estimate AngI Accumulation and Renin Inhibition
# 1.1 Preparation of AngI-BSA Conjugate
# 1.3 mg (1 μmol) of AngI [1-10 (Bachem, H-1680)] and 17 mg (0.26 μmol) of BSA (Fluka, 05475) were dissolved in 4 mL of 0.1M phosphate buffer, pH 7.4, after which 2 mL of a 1:100 dilution of glutaraldehyde in H2O (Sigma G-5882) was added dropwise. The mixture was incubated overnight at 4° C., then dialyzed against 2 liters of 0.9% NaCl, twice for 4 h at rt, followed by dialysis against 2 liters of PBS 1× overnight at rt. The solution was then filtered with a Syringe filter, 0.45 μm (Nalgene, Cat. No. 194-2545). The conjugate can be stored in polypropylene tubes in 0.05% sodium azide at 4° C. for at least 12 months.
# 1.2 Preparation of BSA-AngI Coated MTP
# Microtiter plates (MPT384, MaxiSorp™, Nunc) were incubated overnight at 4° C. with 80 μl of AngI (1-10)/BSA conjugate, diluted 1:100'000 in PBS 1× in a teflon beaker (exact dilution dependent on batch of conjugate), emptied, filled with 90 μl of blocking solution [0.5% BSA (Sigma A-2153) in PBS 1×, 0.02% NaN3], and incubated for at least 2 h at rt, or overnight at 4° C. 96 well MTP (MaxiSorp™, Nunc) were coated with 200 μl conjugate and blocked with 250 μl blocking solution as above, except that the blocking solution contained 3% BSA. The plates can be stored in blocking solution at 4° C. for 1 month.
# 1.3 AngI-EIA in 384 Well MTP
# The AngI (1-10)/BSA coated MTP were washed 3 times with wash buffer (PBS 1×, 0.01% Tween 20) and filled with 75 μl of primary antibody solution (anti-AngI antiserum, pre-diluted 1:10 in horse serum), diluted to a final concentration of 1:100'000 in assay buffer (PBS 1×, 1 mM EDTA, 0.1% BSA, pH 7.4). 5 μl of the renin reaction (or standards in assay buffer) (see below) were added to the primary antibody solution and the plates were incubated overnight at 4° C. After the incubation the plates were washed 3 times with wash buffer and incubated with secondary antibody [anti-rabbit IgG, linked to horseradish peroxidase (Amersham Bioscience, NA 934V), diluted 1:2'000 in wash buffer] for 2 h at rt. The plates were washed 3 times with wash buffer and then incubated for 1 h at rt with substrate solution [1.89 mM ABTS (2.2′-azino-di-(3-ethyl-benzthiazolinsulfonate)] (Roche Diagnostics, 102 946) and 2.36 mM H2O2 [30%, (Fluka, 95300] in substrate buffer (0.1M sodium acetate, 0.05M sodium dihydrogen phosphate, pH 4.2). The OD of the plate was read at 405 nm in a microplate reader (FLUOStar Optima from BMG). The production of AngI during the renin reaction was quantified by comparing the OD of the sample with the OD of a standard curve of AngI(1-10), measured in parallel.
# 2. Primary Renin Inhibition Assay: IC50 in Buffer, 384 Well MTP
# The renin assay was adapted from an assay described before (Fischli W. et al., Hypertension, 1991, 18:22-31) and consists of two steps: in the first step, recombinant human renin is incubated with its substrate (commercial human tetradecapeptide renin substrate) to create the product Angiotensin I (AngI). In the second step, the accumulated AngI is measured by an immunological assay (enzyme immuno assay, EIA). The detailed description of this assay is found below. The EIA is very sensitive and well suited for renin activity measurements in buffer or in plasma. Due to the low concentration of renin used in this assay (2 fmol per assay tube or 10 pM) it is possible to measure inhibitor affinities in this primary assay down to low pM concentration.
# Recombinant human renin (3 pg/μl) in assay buffer (PBS 1×, 1 mM EDTA, 0.1% BSA, pH 7.4), human tetradecapeptide (1-14) substrate (Bachem, M-1120) [5 μM in 10 mM HCl], hydroxyquinoline sulfate (Fluka, 55100) [30 mM in H2O] and assay buffer were premixed at 4° C. at a ratio of 100:30:10:145. 47.5 μl per well of this premix was transferred into polypropylene plates (MTP384, Nunc). […]
row,Molecule,IC50 [nM]
1,"Cc1cccc(CN(C(=O)C(CN)Cc2cnc(OCCOc3c(F)ccc(F)c3Cl)s2)C2CC2)c1C (racemic) [Example 2, (rac.)-3-Amino-2-{2-[2-(2-chloro-3,6-difluoro-phenoxy)-ethoxy]-thiazol-5-ylmethyl}-N-cyclopropyl-N-(2,3-dimethyl-benzyl)-propionamide]",7.8
2,"Mixture of (R)-2-aminomethyl-3-{2-[(R)-3-(3-chloro-2,6-difluoro-phenoxy)-pyrrolidin-1-yl]-thiazol-5-yl}-N-cyclopropyl-N-(2,3-dichloro-benzyl)-propionamide and (S)-2-aminomethyl-3-{2-[(R)-3-(3-chloro-2,6-difluoro-phenoxy)-pyrrolidin-1-yl]-thiazol-5-yl}-N-cyclopropyl-N-(2,3-dichloro-benzyl)-propionamide [Example 14]",45
3,"Mixture of (R)-2-aminomethyl-N-cyclopropyl-N-(2,3-dichloro-benzyl)-3-{2-[(R)-3-(2,6-dichloro-3,4-dimethyl-phenoxy)-pyrrolidin-1-yl]-thiazol-5-yl}-propionamide and (S)-2-aminomethyl-N-cyclopropyl-N-(2,3-dichloro-benzyl)-3-{2-[(R)-3-(2,6-dichloro-3,4-dimethyl-phenoxy)-pyrrolidin-1-yl]-thiazol-5-yl}-propionamide [Example 11]",17

# Results, then the molecule that gave them:
row,IC50 [nM],Molecule
1,0.2,"COCCc1ccc(Cl)c(CN(C(=O)[C@@H](CN)Cc2ccc(OCCOc3c(Cl)cc(C)cc3Cl)nc2)C2CC2)c1 [Example 18, (R)-2-Aminomethyl-N-[2-chloro-5-(2-methoxy-ethyl)-benzyl]-N-cyclopropyl-3-{6-[2-(2,6-dichloro-4-methyl-phenoxy)-ethoxy]-pyridin-3-yl}-propionamide]"
2,0.5,"COCCc1ccc(Cl)c(CN(C(=O)[C@@H](CN)Cc2ccc(N3CC[C@@H](Oc4c(Cl)cc(C)cc4Cl)C3)nc2)C2CC2)c1 [Example 20, (R)-2-Aminomethyl-N-[2-chloro-5-(2-methoxy-ethyl)-benzyl]-N-cyclopropyl-3-{6-[(R)-3-(2,6-dichloro-4-methyl-phenoxy)-pyrrolidin-1-yl]-pyridin-3-yl}-propionamide]"
3,0.3,"COCCc1ccc(Cl)c(CN(C(=O)[C@@H](CN)Cc2ccc(N3CC[C@H](Oc4c(Cl)cc(C)cc4Cl)C3)nc2)C2CC2)c1 [Example 22, (R)-2-Aminomethyl-N-[2-chloro-5-(2-methoxy-ethyl)-benzyl]-N-cyclopropyl-3-{6-[(S)-3-(2,6-dichloro-4-methyl-phenoxy)-pyrrolidin-1-yl]-pyridin-3-yl}-propionamide]"
